# Laboratory results as given in patent publication US20200247800A1, “SUBSTITUTED BICYCLIC HETEROCYCLIC COMPOUNDS AS NADPH OXIDASE INHIBITORS” (Glenmark Pharmaceuticals S.A., priority 2017, published 2020).
# Target: T1, human NOX4 (Homo sapiens, UniProt Q9NPH5)
# T1 construct: expressed in transfected cells; membrane fraction used
# T1 sequence (Q9NPH5 1-578): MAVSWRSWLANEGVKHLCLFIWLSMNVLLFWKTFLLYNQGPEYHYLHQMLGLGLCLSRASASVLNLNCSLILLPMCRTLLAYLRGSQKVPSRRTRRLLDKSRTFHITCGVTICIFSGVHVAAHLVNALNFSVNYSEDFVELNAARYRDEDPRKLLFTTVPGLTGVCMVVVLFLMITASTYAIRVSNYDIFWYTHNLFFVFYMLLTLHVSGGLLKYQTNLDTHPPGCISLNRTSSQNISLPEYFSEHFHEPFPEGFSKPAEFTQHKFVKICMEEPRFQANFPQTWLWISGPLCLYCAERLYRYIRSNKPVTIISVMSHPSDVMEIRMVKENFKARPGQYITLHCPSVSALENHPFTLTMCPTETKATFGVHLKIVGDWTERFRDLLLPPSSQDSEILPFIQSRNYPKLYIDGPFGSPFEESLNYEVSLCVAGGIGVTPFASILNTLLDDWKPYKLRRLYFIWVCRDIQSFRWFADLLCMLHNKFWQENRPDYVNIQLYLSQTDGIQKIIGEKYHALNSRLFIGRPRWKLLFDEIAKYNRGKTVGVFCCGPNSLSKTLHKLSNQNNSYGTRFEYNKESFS
# T1 sequence (P13498 1-195 partner): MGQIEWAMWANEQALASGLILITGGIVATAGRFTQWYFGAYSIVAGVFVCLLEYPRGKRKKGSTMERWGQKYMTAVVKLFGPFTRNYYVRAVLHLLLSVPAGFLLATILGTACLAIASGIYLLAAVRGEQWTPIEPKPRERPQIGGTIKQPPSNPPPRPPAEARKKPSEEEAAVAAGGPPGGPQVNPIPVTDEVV
# Test: Cell free membrane based in vitro NOX4 assay: H2O2 production by membranes expressing human NOX4, measured with Amplex Red
# Format: biochemical
# Details: for inhibition at 1 µM: 1.0 μM compound, read-out: Percentage inhibition at 1.0 μM; for inhibition at 10 µM: 10.0 μM compound, read-out: Percentage inhibition at 10.0 μM; for IC50: class symbols
# Experimental: The inhibition of NOX4 activity was measured as inhibition of formation of reactive oxygen species (ROS) from oxygen in cell free assays. […] A cell free membrane based in vitro assay was developed by preparing membranes from cells stably overexpressing human NOX4. hNOX4/HEK stable cell line was generated in-house for this purpose. Membranes from stably transfected cells overexpressing human NOX4 were prepared by homogenizing the cells in buffer (20 mM HEPES, 1 mM EGTA, 0.5 mM DTT, 0.5% protease inhibitor cocktail, 1 mM PMSF, pH 7.6), followed by centrifugation at 160000 g for 30 min. Membrane fraction (pellet) was resuspended in storage buffer (homogenization buffer with 10% glycerol and 100 mM NaCl) and stored at −80° C. Protein concentration was determined by Bradford reagent. H202 production by membranes expressing human NOX4 was measured using Amplex Red (Invitrogen) by following a slightly modified version of the manufacturer's instruction manual. Briefly, membranes were incubated in assay buffer (25 mM HEPES, 0.12 M NaCl, 3 mM KCl, 1 mM MgCl2, pH 7.4) with Horse Radish Peroxidase (HRP) and Amplex Red. Reaction was started by addition of […] to the membrane mix. Antagonism of NOX4 inhibitors was measured by incubating the membrane with increasing concentrations of the inhibitors for 20 min on a plate shaker prior to addition of NADPH. H2O2 levels were measured for 10 min in a BMG Fluostar microplate reader with excitation and emission wavelengths of 544 nm and 590 nm respectively. Concentration response curves were plotted as a % of maximal response obtained in the absence of the inhibitor. IC50 value was calculated from concentration response curve by nonlinear regression analysis using GraphPad PRISM software.
Structure (SMILES),inhibition at 1 µM [%],inhibition at 10 µM [%],IC50 [nM]
"Cn1nc(C(F)F)c2c(=O)c(O)c(-c3c(F)cccc3F)[nH]c21 [Example 86, 3-(Difluoromethyl)-6-(2,6-difluorophenyl)-5-hydroxy-1-methyl-1H-pyrazolo[3,4-b]pyridin-4(7H)-one]",74.5,89.8,> 150
"Cn1nc(C(F)F)c2c(=O)c(O)c(-c3ccccc3Cl)[nH]c21 [Example 85, 6-(2-Chlorophenyl)-3-(difluoromethyl)-5-hydroxy-1-methyl-1H-pyrazolo[3,4-b]pyridin-4(7H)-one]",72.5,88,> 150
"Cn1nc(C(F)(F)F)c2c(=O)c(O)c(-c3c(F)cccc3Cl)[nH]c21 [Example 45, 6-(2-Chloro-6-fluorophenyl)-5-hydroxy-1-methyl-3-(trifluoromethyl)-1,7-dihydro-4H-pyrazolo[3,4-b]pyridin-4-one]",89.1,98.6,100 to 150
"CCn1nc(C(F)F)c2c(=O)c(O)c(-c3c(F)cccc3F)[nH]c21 [Example 99, 3-(Difluoromethyl)-6-(2,6-difluorophenyl)-1-ethyl-5-hydroxy-1H-pyrazolo[3,4-b]pyridin-4(7H)-one]",71.3,85.1,> 150
"CCc1nn(CCN2CCOCC2)c2[nH]c(-c3ccccc3Cl)c(O)c(=O)c12 [Example 146, 6-(2-Chlorophenyl)-3-ethyl-5-hydroxy-1-(2-morpholinoethyl)-1H-pyrazolo[3,4-b]pyridin-4(7H)-one]",94,81.8,100 to 150
"Cn1nc(C(F)(F)F)c2c(=O)c(O)c(-c3ccc(F)cc3Cl)[nH]c21 [Example 44, 6-(2-Chloro-4-fluorophenyl)-5-hydroxy-1-methyl-3-(trifluoromethyl)-1,7-dihydro-4H pyrazolo[3,4-b]pyridin-4-one]",84.6,100,> 150
"Cc1ccc(F)c(-c2[nH]c3c(c(C)nn3C3CC3)c(=O)c2O)c1F [Example 93, 1-Cyclopropyl-6-(2,6-difluoro-3-methylphenyl)-5-hydroxy-3-methyl-1H-pyrazolo[3,4-b]pyridin-4(7H)-one]",69.1,79.6,> 150
"Cc1nn(-c2ccccn2)c2[nH]c(-c3ccccc3Cl)c(O)c(=O)c12 [Example 30, 6-(2-Chlorophenyl)-5-hydroxy-3-methyl-1-(pyridin-2-yl)-1,7-dihydro-4H-pyrazolo[3,4-b]pyridin-4-one]",64.1,77.3,> 150
"Cn1nc(CN2CCN(CC(F)(F)F)CC2)c2c(=O)c(O)c(-c3c(F)cccc3F)[nH]c21 [Example 196, 3-((4-(2,2,2-trifluoroethyl)piperazin-1-yl)methyl)-6-(2,6-difluorophenyl)-5-hydroxy-1-methyl-1H-pyrazolo[3,4-b]pyridin-4(7H)-one]",100,100,100 to 150
"CCc1nn(C)c2[nH]c(-c3ccc(F)c(C(F)(F)F)c3)c(O)c(=O)c12 [Example 159, 3-Ethyl-6-(4-fluoro-3-(trifluoromethyl)phenyl)-5-hydroxy-1-methyl-1H-pyrazolo[3,4-b]pyridine-4(7H)-one]",71.9,,> 150
"Cc1nn(C)c2[nH]c(-c3ccc(Cl)cc3Cl)c(O)c(=O)c12 [Example 11, 6-(2,4-Dichlorophenyl)-5-hydroxy-1,3-dimethyl-1,7-dihydro-4H-pyrazolo[3,4-b]pyridin-4-one]",76.6,76.5,100 to 150
"Cn1ncc2c(=O)c(O)c(-c3ccc(F)c(C(F)(F)F)c3)[nH]c21 [Example 6, 6-[4-Fluoro-3-(trifluoromethyl)phenyl]-5-hydroxy-1-methyl-1,7-dihydro-4H-pyrazolo[3,4-b]pyridin-4-one]",96.3,94.3,100 to 150
"O=c1c(O)c(-c2c(F)cccc2F)[nH]c2c1c(C1CCOCC1)nn2-c1ccc(F)cc1 [Example 204, 6-(2,6-Difluorophenyl)-1-(4-fluorophenyl)-5-hydroxy-3-(tetrahydro-2H-pyran-4-yl)-1H-pyrazolo[3,4-b]pyridin-4(7H)-one]",95.2,99.7,100 to 150
"Cc1c2oc(-c3ccccc3Cl)c(O)c(=O)c2nn1C [Example 227, 5-(2-chlorophenyl)-6-hydroxy-2,3-dimethylpyrano[3,2-c]pyrazol-7(2H)-one]",6.03,16,
"Cc1nn(-c2ccc(F)cc2)c2oc(-c3ccccc3Cl)c(O)c(=O)c12 [Example 231, 6-(2-Chlorophenyl)-1-(4-fluorophenyl)-5-hydroxy-3-methylpyrano[2,3-c]pyrazol-4(1H)-one]",12.5,9.39,

# The remaining lines, values ahead:
inhibition at 1 µM [%],inhibition at 10 µM [%],IC50 [nM],Structure (SMILES)
84.8,87.7,50 to 100,"CCn1nc(C)c2c(=O)c(O)c(-c3c(F)cc(NS(C)(=O)=O)cc3F)[nH]c21 [Example 236, N-[4-(1-Ethyl-5-hydroxy-3-methyl-4-oxo-4,7-dihydro-1H-pyrazolo[3,4-b]pyridin-6-yl)-3,5-difluorophenyl]methanesulfonamide]"
100,100,50 to 100,"Cc1cc2c(=O)c(O)c(-c3ccc(F)c(C(F)(F)F)c3)[nH]c2s1 [Example 61, 6-[4-Fluoro-3-(trifluoromethyl)phenyl]-5-hydroxy-2-methylthieno[2,3-b]pyridin-4(7H)-one]"
87.5,100,50 to 100,"O=c1c(O)c(-c2ccccc2Cl)[nH]c2c1cnn2CC(F)(F)F [Example 8, 6-(2-Chlorophenyl)-5-hydroxy-1-(2,2,2-trifluoroethyl)-1,7-dihydro-4H-pyrazolo[3,4-b]pyridin-4-one]"
100,99.3,50 to 100,"COc1ccc(Cl)c(-c2[nH]c3c(c(C)nn3C)c(=O)c2O)c1 [Example 23, 6-(2-Chloro-5-methoxyphenyl)-5-hydroxy-1,3-dimethyl-1,7-dihydro-4H-pyrazolo[3,4-b]pyridin-4-one]"
83.6,63.8,50 to 100,"Cc1nn(C2CCC2)c2[nH]c(-c3ccccc3Cl)c(O)c(=O)c12 [Example 144, 6-(2-Chlorophenyl)-1-cyclobutyl-5-hydroxy-3-methyl-1H-pyrazolo[3,4-b]pyridin-4(7H)-one]"
100,100,50 to 100,"Cc1nn(CCN2CCOCC2)c2[nH]c(-c3c(F)cccc3F)c(O)c(=O)c12 [Example 88, 6-(2,6-Difluorophenyl)-5-hydroxy-3-methyl-1-(2-morpholinoethyl)-1H-pyrazolo[3,4-b]pyridin-4(7H)-one]"
94,97.5,50 to 100,"Cc1nn(CCN(C)C)c2[nH]c(-c3ccccc3Cl)c(O)c(=O)c12 [Example 80, 6-(2-Chlorophenyl)-1-(2-(dimethylamino)ethyl)-5-hydroxy-3-methyl-1H-pyrazolo[3,4-b]pyridin-4(7H)-one]"
100,100,< 50,"Cc1nn(-c2cccc(F)c2)c2[nH]c(-c3ccccc3Cl)c(O)c(=O)c12 [Example 34, 6-(2-Chlorophenyl)-1-(3-fluorophenyl)-5-hydroxy-3-methyl-1,7-dihydro-4H-pyrazolo[3,4-b]pyridin-4-one]"
100,100,< 50,"Cc1nn(-c2cccc(F)c2)c2[nH]c(-c3c(F)cccc3F)c(O)c(=O)c12 [Example 35, 6-(2,6-Difluorophenyl)-1-(3-fluorophenyl)-5-hydroxy-3-methyl-1,7-dihydro-4H-pyrazolo[3,4-b]pyridin-4-one]"
